Experimental data taken from paper PMC12396409, “Screening and hit evaluation of a microbial metabolite library against the pathogenic Plasmodium falciparum and Toxoplasma gondii parasites” (International Journal for Parasitology: Drugs and Drug …, 2025).
Structures can show the parent of a compound that is named as a salt. Where two headings read alike, the source gives them in different places.

Legend:
[1] = tested on: P. falciparum 3D7 parasites; test: P. falciparum growth inhibition assay, 2-cycle (120 h treatment), delayed-death screen and dose-response; type: cell-based, Plasmodium falciparum; conditions: for 2) Growth (%) at 120 h / 3) Fold change (72 h/120 h): P. falciparum, 2 μg/mL; for 3) Fold change (72 h/120 h): growth at 72 h / growth at 120 h; for activity at 2 µg/mL: Plasmodium falciparum, 3D7; P. falciparum, 2 μg/mL, 120 h; read-out: 2) Growth (%) at 120 h
[2] = tested on: P. falciparum 3D7 parasites; test: P. falciparum growth inhibition assay, 1-cycle (72 h treatment), SYBR DNA staining (library screen at 2 μg/mL and dose-response); type: cell-based, Plasmodium falciparum; conditions: for activity at 2 µg/mL: Plasmodium falciparum, 3D7; P. falciparum, 2 μg/mL, 72 h; read-out: 1) Growth (%) at 72 h
[3] = tested on: T. gondii RH strain (RH-Tub-eYFP) tachyzoites; test: microbe, parasite or virus in culture; type: cell-based, Toxoplasma gondii; conditions: T. gondii, 72 h, 2 μg/mL
[4] = 3D7, 72 h treatment, mean ± S.D., n ≥ 3, read-out: IC50 (μM), P. falciparum
[5] = values are growth (% of control)
[6] = Plasmodium falciparum, 3D7, 72 h treatment, mean ± S.D., n ≥ 3, read-out: IC50 (μM), P. falciparum
[7] = 72 h treatment, read-out: IC50, P. falciparum
[8] = P. falciparum, 72 h, 2 μg/mL, mean of both replicates, growth (% of control)

Compound | 2) Growth (%) at 120 h [1] [%] | 3) Fold change (72 h/120 h) [1] | 1) Growth (%) at 72 h ([2]; P. falciparum, 2 μg/mL, 72 h) [%] | also measured
CO[C@@H]1[C@@H](O[C@@H]2O[C@H](C)[C@@H](O[C@H]3C[C@@](C)(O)[C@@H](OC(=O)CC(C)C)[C@H](C)O3)[C@H](N(C)C)[C@H]2O)[C@@H](CC=O)C[C@@H](C)[C@@H](O)/C=C/C=C/C[C@@H](C)OC(=O)C[C@H]1O [Leucomycin A1] | 11.56 | 5.1 | 58.63 | –
CCO[C@@H]1[C@@H](OC)[C@H](C)O[C@@H](O[C@@H]2C[C@H]3CC[C@@H]4[C@@H](C=C5C(=O)[C@H](C)[C@@H](O[C@H]6CC[C@H](N(C)C)[C@@H](C)O6)CCC[C@H](CC)OC(=O)C[C@H]54)[C@@H]3C2)[C@@H]1OC [3-Ethoxy-5,6-dihydrospinosyn J] | – | – | – | IC50 [2, 4]: 0.42 ± 0.22 µM
CN(C)c1ccc(O)c2c1C[C@H]1C[C@H]3[C@H](N(C)C)C(O)=C(C(N)=O)C(=O)[C@@]3(O)C(O)=C1C2=O [Minocycline HCl, reference compound] | – | – | – | Mean ([3]; mean of both replicates, growth (% of control)): 21.66; Replicate 1 [3, 5]: 5.81; Replicate 2 [3, 5]: 37.51
CN=C1NC(=O)[C@H]([C@H](C)c2c[nH]c3ccccc23)O1 [Indolmycin] | 17.39 | 2.6 | 44.88 | –
CC[C@H](C)[C@H]1OC(=O)[C@H](Cc2ccccc2)N(C)C(=O)[C@@H](C(C)C)OC(=O)[C@H](Cc2ccccc2)N(C)C(=O)[C@@H](C(C)C)OC(=O)[C@H](Cc2ccccc2)N(C)C1=O [Beauvericin A] | – | – | – | IC50 ([2]; Plasmodium falciparum, 3D7, 72 h treatment, read-out: IC50, P. falciparum): 0.33 µM; IC50 [2, 6]: 0.326 ± 0.095 µM
CCCCCC(=O)O[C@H]1[C@H](C)O[C@@H](O[C@H]2[C@H](N(C)C)[C@@H](O)[C@H](O[C@H]3[C@@H](CC=O)C[C@@H](C)[C@@H](O)/C=C/C=C/C[C@@H](C)OC(=O)C[C@@H](O)[C@@H]3OC)O[C@@H]2C)C[C@@]1(C)O [Leucomycin A13] | 9.02 | 3.7 | 33.20 | –
Thiocillin III | – | – | – | IC50 [2, 4]: 0.11 ± 0.006 µM; IC50 [2, 7]: < 0.2 µM
Ikarugamycin | – | – | – | Mean [2, 8]: 48.31
CC1=C[C@H]2C(=O)O[C@H]3C[C@@H](C/C=C(\C)C[C@@H](C)/C=C/C=C4\CO[C@H]([C@@H]1O)[C@@]42O)O[C@]1(C3)C[C@H](O)[C@H](C)[C@@H](/C(C)=C/C(C)C)O1 [Nemadectin] | 11.78 | 1.9 | 21.98 | Mean [2, 8]: 21.98
CCCC(=O)O[C@H]1[C@H](C)O[C@@H](O[C@H]2[C@H](N(C)C)[C@@H](O)[C@H](O[C@H]3[C@@H](CC=O)C[C@@H](C)[C@@H](O)/C=C/C=C/C[C@@H](C)OC(=O)C[C@@H](O)[C@@H]3OC)O[C@@H]2C)C[C@@]1(C)O [Leucomycin A5] | 12.18 | 5.4 | 66.05 | –
CC1=C[C@H]2C(=O)O[C@H]3C[C@@H](C/C=C(\C)C[C@@H](C)/C=C/C=C4\CO[C@H]([C@@H]1O)[C@@]42O)O[C@@]1(CC[C@H](C)[C@@H](C)O1)C3 [Milbemycin A3] | 17.63 | 1.4 | 24.47 | Mean [2, 8]: 24.47
CC1=C[C@H]2[C@H](O)[C@H](O)CC[C@H]2[C@@](C)(C(O)=C2C(=O)CNC2=O)[C@@H]1CCC(C)C(O)/C(C)=C/CC(O)/C=C/C(C)C(O)/C=C/CC(O)/C(C)=C/CC(O)CC1CCCN1C(=N)N (some centres unmarked) [Lydicamycin] | – | – | – | Mean [2, 8]: 36.70
Cc1cc(=O)n2c3c(c4c(cc13)c(CO)cc(=O)n4C)OC2 [Nybomycin] | 16.54 | 1.9 | 31.94 | Mean [2, 8]: 31.94
Bischloroanthra-benzoxocinone | – | – | – | Mean [2, 8]: 31.15
C/C=C(/NC(=O)c1csc(-c2csc(-c3ccc4c(n3)-c3csc(n3)C(C(C)OC)NC(=O)c3csc(n3)C(C(C)(C)O)NC(=O)c3csc(n3)/C(=C\C)NC(=O)C(C(C)O)NC(=O)c3csc-4n3)n2)n1)C(=O)NCC(C)O (centres unmarked) [Thiocillin II] | – | – | – | IC50 [2, 4]: 0.161 ± 0.038 µM; IC50 [2, 7]: < 0.2 µM
CC(=O)O[C@H]1C[C@@]2(C)[C@@H](CC[C@H]3[C@@]4(C)C=CC(=O)[C@@H](C)[C@@H]4[C@H](OC(C)=O)C(=O)[C@@]32C)/C1=C(\CCC=C(C)C)C(=O)O [Helvolic acid] | – | 7.0 | – | activity at 2 µg/mL [1]: 8.14%; activity at 2 µg/mL [2]: 56.7%

Compound | 2) Growth (%) at 120 h [1] [%] | 3) Fold change (72 h/120 h) [1] | 1) Growth (%) at 72 h ([2]; P. falciparum, 2 μg/mL, 72 h) [%] | also measured
CCO[C@@H]1[C@@H](OC)[C@H](C)O[C@@H](O[C@H]2C[C@H]3[C@@H]4C=C5C(=O)[C@H](C)[C@@H](O[C@H]6CC[C@H](N(C)C)[C@@H](C)O6)CCC[C@H](CC)OC(=O)C[C@H]5[C@@H]4C=C(C)[C@@H]3C2)[C@@H]1OC [3-Ethoxyspinosyn L] | – | – | – | IC50 [2, 4]: 0.57 ± 0.28 µM
4-O-methylammocidin | 13.10 | 3.3 | 43.16 | –
CN(C)[C@@H]1C(O)=C(C(N)=O)C(=O)[C@@]2(O)C(O)=C3C(=O)c4c(O)cccc4[C@@](C)(O)[C@H]3[C@H](O)[C@@H]12 [Oxytetracycline, reference compound] | – | 3.1 | – | activity at 2 µg/mL [1]: 15.2%; activity at 2 µg/mL [2]: 47.4%
CCC[C@@H]1C[C@@H](C(=O)N[C@@H]([C@H]2O[C@H](SC)[C@H](O)[C@@H](O)[C@H]2O)[C@@H](C)O)N(C)C1 [Lincomycin, reference compound] | – | 3.8 | – | activity at 2 µg/mL [1]: 14.1%; activity at 2 µg/mL [2]: 54.4%
CC[C@H](C)[C@H]1O[C@]2(CC[C@@H]1C)C[C@@H]1C[C@@H](C/C=C(\C)[C@@H](O[C@H]3C[C@H](OC)[C@@H](O)[C@H](C)O3)[C@@H](C)/C=C/C=C3\CO[C@@H]4[C@H](O)C(C)=C[C@@H](C(=O)O1)[C@]34O)O2 [Ivermectin B1a monosaccharide] | – | – | – | Mean [2]: 49.58
Oc1cc(O)cc(O)c1 [Phloroglucinol] | – | 3.9 | – | activity at 2 µg/mL [1]: 13.2%; activity at 2 µg/mL [2]: 51.2%
CC[C@H]1O[C@]2(CC[C@@H]1C)C[C@@H]1C[C@@H](C/C=C(\C)C[C@@H](C)/C=C/C=C3\CO[C@@H]4C(=NO)C(C)=C[C@@H](C(=O)O1)[C@]34O)O2 [Milbemycin A4 oxime] | 12.31 | 1.8 | 22.48 | Mean [2, 8]: 22.48
Methylcanidine | 11.61 | 1.8 | 21.12 | Mean [2, 8]: 21.12
CCCC[C@H](C)[C@@H]1CC(=O)N[C@@H](Cc2ccccc2)C(=O)N[C@@H](C)C(=O)N[C@H]([C@@H](C)CC)C(=O)O1 [Beauveriolide III] | – | – | – | IC50 [2, 6]: > 1 µM
CCO[C@@H]1[C@@H](OC)[C@H](C)O[C@@H](O[C@@H]2C[C@H]3CC[C@@H]4[C@@H](C=C5C(=O)[C@H](C)[C@@H](O)CCC[C@H](CC)OC(=O)C[C@H]54)[C@@H]3C2)[C@@H]1OC [3-Ethoxy-5,6-dihydrospinosyn J pseudoaglycone] | – | – | – | IC50 [2, 4]: > 1 µM; Screen (P. falciparum) ([2]; library screen at 2 μg/mL, 3D7, 72 h, DD from the 120 h timepoint): I
Milbemycin oxime [reference compound] | 3.08 | 7.7 | 23.75 | –
COC(=O)C1=CO[C@@H](C)[C@@H]2CN3CCc4c([nH]c5cc(OC)c(OC)cc45)[C@@H]3C[C@H]12 [Isoreserpiline] | 4.30 | 5.7 | 24.60 | –
CC[C@H]1CCC[C@H](O)[C@@H](C)C(=O)C2=C[C@@H]3[C@@H](C=C(C)[C@@H]4C[C@@H](O[C@@H]5O[C@@H](C)[C@H](OC)[C@@H](OC)[C@H]5OC)C[C@@H]34)[C@@H]2CC(=O)O1 [Spinosyn D pseudoaglycone] | – | – | – | IC50 [2, 4]: > 1 µM
CCO[C@@H]1[C@@H](OC)[C@H](C)O[C@@H](O[C@H]2C[C@H]3[C@@H]4C=C5C(=O)[C@H](C)[C@@H](O)CCC[C@H](CC)OC(=O)C[C@H]5[C@@H]4C=C(C)[C@@H]3C2)[C@@H]1OC [3-Ethoxyspinosyn L pseudoaglycone] | – | – | – | IC50 [2, 4]: > 1 µM
CC[C@H]1/C=C/C=C/C[C@@H](C)[C@H](O)[C@@](C)(O)C(=O)[C@@H](C)[C@H](O)[C@@H](C)C(=O)[C@@H](C)[C@H](O)[C@@H](C)/C=C/C(=O)O[C@H]2C[C@@]3(CC[C@H](C)[C@H](C[C@@H](C)O)O3)O[C@@H](CC1)[C@H]2C [Oligomycin D] | 14.87 | 1.5 | 21.67 | Mean [2, 8]: 21.67
